In US8648201B2, “Aminopyridine derivatives for treating tumors and inflammatory diseases” (MERCK PATENT GmbH, priority 2009, dated 2014):

Columns and labels:
[1] = target: T1, PDK1 (Homo sapiens, UniProt O15530); assay: Test for the inhibition of PDK1 (flashplate, 33P-ATP); type: biochemical; settings: enzyme
T1 construct: His6 (N)
T1 sequence (O15530 51-556 limits assumed): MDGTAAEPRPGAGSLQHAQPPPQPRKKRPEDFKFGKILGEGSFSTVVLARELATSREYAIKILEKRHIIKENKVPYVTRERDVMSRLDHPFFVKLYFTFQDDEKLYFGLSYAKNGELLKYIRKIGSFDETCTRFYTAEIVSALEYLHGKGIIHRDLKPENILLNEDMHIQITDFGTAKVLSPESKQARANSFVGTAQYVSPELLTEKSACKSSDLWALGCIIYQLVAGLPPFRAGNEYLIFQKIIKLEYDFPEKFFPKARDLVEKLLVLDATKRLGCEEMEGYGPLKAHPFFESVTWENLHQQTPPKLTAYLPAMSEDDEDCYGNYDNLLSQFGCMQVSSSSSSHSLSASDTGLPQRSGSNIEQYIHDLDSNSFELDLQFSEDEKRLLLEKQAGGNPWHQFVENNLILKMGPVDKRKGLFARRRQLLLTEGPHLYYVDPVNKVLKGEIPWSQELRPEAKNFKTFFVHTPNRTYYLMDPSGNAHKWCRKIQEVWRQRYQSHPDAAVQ
Summary of the method: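 His6-PDK1(1-50) (3.4 nM) incubated with biotinylated peptide substrate (400 nM), 4 μM ATP plus 33P-ATP and compound, 60 min at 30 °C. Incorporated radioactivity counted; blank with 100 nM staurosporine subtracted, activity as % of compound-free control. IC50 from dose series.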

[2] = target: T2, IRAK-1 (Homo sapiens, UniProt P51617); assay: Test for the inhibition of IRAK1 (autophosphorylation, flashplate); type: biochemical; settings: enzyme
T2 construct: His6 (N); Dr.Jaekel Pool B, 232Y08C1.IRK
T2 sequence (P51617 whole entry, species assumed): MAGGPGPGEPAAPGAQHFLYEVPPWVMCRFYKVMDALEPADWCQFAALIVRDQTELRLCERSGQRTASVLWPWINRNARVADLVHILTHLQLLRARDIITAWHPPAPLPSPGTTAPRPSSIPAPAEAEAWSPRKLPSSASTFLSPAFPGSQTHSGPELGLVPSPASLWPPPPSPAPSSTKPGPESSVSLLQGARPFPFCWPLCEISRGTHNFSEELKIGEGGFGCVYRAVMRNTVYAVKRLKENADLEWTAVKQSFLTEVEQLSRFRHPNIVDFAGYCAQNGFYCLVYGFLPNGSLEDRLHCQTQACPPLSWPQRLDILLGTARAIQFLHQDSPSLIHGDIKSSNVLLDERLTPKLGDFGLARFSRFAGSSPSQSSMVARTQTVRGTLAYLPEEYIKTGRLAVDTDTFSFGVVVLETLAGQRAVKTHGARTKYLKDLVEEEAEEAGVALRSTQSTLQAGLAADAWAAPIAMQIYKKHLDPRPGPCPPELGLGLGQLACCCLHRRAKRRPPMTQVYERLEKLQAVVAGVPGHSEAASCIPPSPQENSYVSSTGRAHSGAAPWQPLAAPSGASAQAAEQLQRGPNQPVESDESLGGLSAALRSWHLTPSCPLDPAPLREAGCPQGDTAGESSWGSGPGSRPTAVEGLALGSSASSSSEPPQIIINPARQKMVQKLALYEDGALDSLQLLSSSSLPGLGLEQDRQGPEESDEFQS
Summary of the method: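 His6-IRAK1 (5.1 nM) autophosphorylation with 1 μM ATP plus ^33P-ATP, 180 min at 22° C, read as incorporated radioactivity. Blank with 1 μM staurosporin was subtracted and activity expressed as % of no-compound control. IC50 derived from the dilution series.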

[3] = target: T3, IRAK-4 (Homo sapiens, UniProt Q9NWZ3); assay: IC50 IRAK-4 (cell); type: cell-based
T3 construct: His6 (N); Dr.Jaekel
T3 sequence (Q9NWZ3 1-460): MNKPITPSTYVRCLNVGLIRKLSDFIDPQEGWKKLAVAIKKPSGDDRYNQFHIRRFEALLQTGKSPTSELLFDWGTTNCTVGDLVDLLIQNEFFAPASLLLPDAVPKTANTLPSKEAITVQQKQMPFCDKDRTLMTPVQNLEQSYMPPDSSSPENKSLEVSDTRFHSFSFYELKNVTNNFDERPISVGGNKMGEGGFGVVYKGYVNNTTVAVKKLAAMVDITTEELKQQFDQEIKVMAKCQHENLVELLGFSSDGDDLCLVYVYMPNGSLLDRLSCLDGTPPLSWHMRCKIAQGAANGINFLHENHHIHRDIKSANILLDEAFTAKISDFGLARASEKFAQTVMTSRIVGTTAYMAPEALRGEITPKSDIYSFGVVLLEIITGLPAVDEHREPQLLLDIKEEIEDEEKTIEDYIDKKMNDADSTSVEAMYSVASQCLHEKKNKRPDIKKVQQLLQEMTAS

Structure (SMILES)	IC50 [1]	IC50 [2]	IC50 [3]
Cn1cc(-c2cnc(N)c(-c3nc4ccc(C(=O)NCCc5ccc(F)c(F)c5)cc4[nH]3)c2)cn1 [Compound A128, N-[2-(3,4-difluorophenyl)ethyl]-2-[2-amino-5-(1-methyl-1H-pyrazol-4-yl)pyridin-3-yl]-3H-benzimidazole-5-carboxamide]	1 to 100 nM	100 to 10000 nM	–
Cn1cc(-c2cnc(N)c(-c3nc4cccc(CO)c4[nH]3)c2)cn1 [Compound A52]	1 to 100 nM	100 to 10000 nM	–
CC1CC(=O)NN=C1c1ccc2nc(-c3cc(-c4cnn(C)c4)cnc3N)[nH]c2c1 (racemic) [Compound A1, 6-{2-[2-amino-5-(1-methyl-1H-pyrazol-4-yl)pyridin-3-yl]-3H-benzimidazol-5-yl}-5-methyl-4,5-dihydro-2H-pyridazin-3-one]	1 to 100 nM	100 to 10000 nM	–

Next, values leading:

IC50 [1]	IC50 [2]	IC50 [3]	Structure (SMILES)
1 to 100 nM	1 to 100 nM	–	COc1ccc2nc(-c3cc(-c4ccc(C(=O)NC5CCN(C)CC5)s4)cnc3N)[nH]c2c1 [Compound A133, N-(1-Methylpiperidin-4-yl)-5-[6-amino-5-(6-methoxy-1H-benzimidazol-2-yl)pyridin-3-yl]thiophene-2-carboxamide]
1 to 100 nM	1 to 100 nM	100 to 10000 nM	COc1ccc2nc(-c3cc(-c4cnn(C5CCNCC5)c4)cnc3N)[nH]c2c1 [Compound A92, 3-(6-Methoxy-1H-benzimidazol-2-yl)-5-(1-piperidin-4-yl-1H-pyrazol-4-yl)pyridin-2-ylamine]
1 to 100 nM	100 to 10000 nM	–	COc1ccc2nc(-c3cc(-c4ccsc4)cnc3N)[nH]c2c1 [Compound A144, 3-(6-methoxy-1H-benzimidazol-2-yl)-5-thiophen-3-ylpyridin-2-ylamine]
1 to 100 nM	100 to 10000 nM	–	COc1ccc2nc(-c3cc(-c4cnn(C)c4)cnc3N)[nH]c2c1 [Compound A43]
